The text below walks through data of ChEMBL document CHEMBL4024704, “Idiopathic Pulmonary Fibrosis: Current Status, Recent Progress, and Emerging Targets” (J Med Chem, 2017).

Data set [1] deals with T1, Interleukin-8 receptors, CXCR1/CXCR2 (Homo sapiens) (UniProt P25025+P25024). The data set can be described thus: Inhibition of GROalpha interaction with CXCR1/CXCR2 in human PMN leukocytes assessed as reduction in leukocyte migration after 5 days in presence of Diff-Quick staining by matrigel based microscopic analysis. Format: cell-based. To be noted: concentration not given here.

In data set [2] the target is T1, Interleukin-8 receptors, CXCR1/CXCR2 (Homo sapiens). The data set can be described thus: Inhibition of IL-8 interaction with CXCR1/CXCR2 in human PMN leukocytes assessed as reduction in leukocyte migration after 5 days in presence of Diff-Quick staining by matrigel based microscopic analysis. Format: cell-based. As to conditions: concentration not given here.
In data set [3] the test system is NIH3T3. The data set can be described thus: Antiproliferative activity against mouse NIH/3T3 cells by MTT assay. Format: cell-based.
For data set [4], the system named is Rattus norvegicus. The data set can be described thus: Anti-inflammatory activity in Sprague-Dawley rat assessed as inhibition of LPS-induced TNFalpha production administered via oral gavage for 1 hr followed by LPS challenge measured after 1.5 hrs by ELISA. The format is functional.
In data set [5] the test system is NIH3T3. The data set can be described thus: Antiproliferative activity against mouse NIH/3T3 cells after 72 hrs by MTT assay. Format: cell-based. As to conditions: NIH3T3, 72 h.
Data set [6] in a line: Elimination half life in healthy human at 801 mg. To be noted: in vivo, read-out: beta t1/2 (converted). The format is ADME.
The test system of data set [7] is Rattus norvegicus. The data set can be described thus: Antifibrotic activity in […] rat bleomycin-induced pulmonary fibrosis model assessed as hydroxyproline content in lung at 0.04 g/day administered via oral gavage by spectrophotometric analysis. Format: functional.
Data set [8] can be described thus: Inhibition of Wnt/beta-catenin signaling in human NL-20 cells by beta-catenin-based reporter assay. The format is cell-based. As to conditions: NL20.
The test system of data set [9] is NIH3T3. As to the kind of experiment: Anticancer activity against mouse NIH/3T3 cells after 24 hrs by cell titer 96 aqueous one solution based assay. To be noted: NIH3T3, 24 h.
Data set [10] deals with T1, Interleukin-8 receptors, CXCR1/CXCR2 (Homo sapiens). As to the kind of experiment: Inhibition of […] interaction with CXCR1/CXCR2 in human PMN leukocytes assessed as reduction in leukocyte migration after 5 days in presence of Diff-Quick staining by matrigel based microscopic analysis. The format is cell-based. To be noted: concentration not given here.
Data set [11] can be described thus: Inhibition of TGF-beta (unknown origin). Set-up: species or system Homo sapiens.
The target in data set [12] is T2, Mitogen-activated protein kinase kinase kinase 5 (Homo sapiens, UniProt Q99683).
T2 sequence (Q99683 whole entry): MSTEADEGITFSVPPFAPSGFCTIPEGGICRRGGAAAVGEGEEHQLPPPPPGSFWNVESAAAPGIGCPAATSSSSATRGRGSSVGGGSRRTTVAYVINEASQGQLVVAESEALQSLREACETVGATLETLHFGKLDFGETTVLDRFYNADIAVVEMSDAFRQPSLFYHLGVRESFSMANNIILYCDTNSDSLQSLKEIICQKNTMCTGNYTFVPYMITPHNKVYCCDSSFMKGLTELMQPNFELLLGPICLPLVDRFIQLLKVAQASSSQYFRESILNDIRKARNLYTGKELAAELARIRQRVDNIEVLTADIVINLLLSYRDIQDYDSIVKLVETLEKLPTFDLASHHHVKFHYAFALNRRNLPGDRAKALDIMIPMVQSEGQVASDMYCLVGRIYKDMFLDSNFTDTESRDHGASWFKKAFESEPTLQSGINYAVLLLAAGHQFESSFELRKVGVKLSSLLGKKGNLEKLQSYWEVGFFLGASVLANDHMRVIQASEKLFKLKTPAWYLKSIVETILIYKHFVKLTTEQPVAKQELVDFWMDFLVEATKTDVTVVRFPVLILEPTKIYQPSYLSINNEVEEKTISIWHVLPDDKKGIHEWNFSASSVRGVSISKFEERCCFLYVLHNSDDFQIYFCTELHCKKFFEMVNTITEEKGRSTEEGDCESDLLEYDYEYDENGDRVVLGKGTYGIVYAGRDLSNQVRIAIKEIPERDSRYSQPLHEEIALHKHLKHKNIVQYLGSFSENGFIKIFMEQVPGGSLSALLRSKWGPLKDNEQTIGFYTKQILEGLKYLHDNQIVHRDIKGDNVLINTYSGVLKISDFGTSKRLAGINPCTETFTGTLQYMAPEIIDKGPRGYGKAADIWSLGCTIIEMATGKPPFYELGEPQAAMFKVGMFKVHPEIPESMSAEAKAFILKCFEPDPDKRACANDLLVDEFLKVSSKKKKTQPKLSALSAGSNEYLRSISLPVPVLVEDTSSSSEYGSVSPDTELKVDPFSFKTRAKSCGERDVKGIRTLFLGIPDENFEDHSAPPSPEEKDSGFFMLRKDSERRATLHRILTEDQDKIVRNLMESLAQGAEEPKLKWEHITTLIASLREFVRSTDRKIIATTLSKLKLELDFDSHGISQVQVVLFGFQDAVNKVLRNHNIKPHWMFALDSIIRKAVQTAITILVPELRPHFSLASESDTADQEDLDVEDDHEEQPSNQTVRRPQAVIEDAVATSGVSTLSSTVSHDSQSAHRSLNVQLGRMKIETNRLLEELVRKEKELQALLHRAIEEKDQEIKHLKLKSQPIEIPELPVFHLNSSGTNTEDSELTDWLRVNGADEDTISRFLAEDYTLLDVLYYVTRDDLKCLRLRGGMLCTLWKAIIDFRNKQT
As to the kind of experiment: Inhibition of recombinant human ASK1 using STK3 peptide as substrate incubated for 30 mins followed by ATP addition measured for 3 hrs by TR-FRET assay.

The subject of data set [13] is A549. As to the kind of experiment: Anticancer activity against human A549 cells after 24 hrs by cell titer 96 aqueous one solution based assay. Format: functional. As to conditions: A549, 24 h.
For data set [14], the target named is Disintegrin and metalloproteinase domain-containing protein 17 (Homo sapiens, UniProt P78536). As to the kind of experiment: Inhibition of recombinant TACE catalytic domain (unknown origin) using pro-TNFalpha peptide Abz-LAQAVRSSSR-Dpa as substrate preincubated for 10 mins followed by substrate addition measured after 10 mins by FRET assay.
In a further data set the target is Cathepsin B (Homo sapiens, UniProt P07858). As to the kind of experiment: Inhibition of human liver cathepsin B using Boc-Leu-Arg-Arg-AMC as substrate preincubated for 15 mins followed by substrate addition measured after 30 mins by spectrofluorimetric analysis.
The test system of data set [15] is A549. As to the kind of experiment: Antiproliferative activity against human A549 cells after 72 hrs by MTT assay. Format: functional, cell-based. As to conditions: A549, 72 h.
The subject of data set [16] is NIH3T3. As to the kind of experiment: Antiproliferative activity against mouse NIH/3T3 cells. The format is cell-based.

pIC50: −log10 of the molar value.

Chain of Disintegrin and metalloproteinase domain-containing protein 17 (P78536 whole entry, the tested form may be a part): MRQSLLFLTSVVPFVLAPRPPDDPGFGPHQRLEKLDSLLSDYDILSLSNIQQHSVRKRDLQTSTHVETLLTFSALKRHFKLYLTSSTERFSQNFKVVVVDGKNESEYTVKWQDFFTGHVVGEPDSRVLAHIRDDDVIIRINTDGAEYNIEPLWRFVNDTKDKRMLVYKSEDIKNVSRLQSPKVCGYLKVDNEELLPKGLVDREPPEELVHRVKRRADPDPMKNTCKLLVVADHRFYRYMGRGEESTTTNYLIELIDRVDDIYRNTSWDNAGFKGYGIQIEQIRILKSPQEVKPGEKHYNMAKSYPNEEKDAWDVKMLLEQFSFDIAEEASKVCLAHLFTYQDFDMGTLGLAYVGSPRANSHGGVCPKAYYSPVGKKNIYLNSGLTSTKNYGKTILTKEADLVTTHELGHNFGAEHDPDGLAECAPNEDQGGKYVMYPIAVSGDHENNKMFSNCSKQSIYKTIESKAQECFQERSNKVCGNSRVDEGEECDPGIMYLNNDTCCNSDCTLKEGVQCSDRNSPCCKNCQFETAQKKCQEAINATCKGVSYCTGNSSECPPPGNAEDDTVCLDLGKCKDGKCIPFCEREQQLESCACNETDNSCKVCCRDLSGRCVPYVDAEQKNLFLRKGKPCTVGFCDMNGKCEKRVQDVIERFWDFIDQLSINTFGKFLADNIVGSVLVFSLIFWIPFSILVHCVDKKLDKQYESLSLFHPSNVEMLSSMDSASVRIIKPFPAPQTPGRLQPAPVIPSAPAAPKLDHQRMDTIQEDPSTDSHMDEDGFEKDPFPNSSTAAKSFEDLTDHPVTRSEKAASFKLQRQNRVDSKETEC

As to `CCC(=O)c1cccc(CC(=O)O)c1Cl`, the inhibition in [1] is 27%; in data set [2], 67%.

For `Cc1ccc(=O)n(-c2cccc(F)c2)c1` [FLUOROFENIDONE], the negative-log IC50 (pIC50) with NIH3T3 [3] was 2.38.

`CNC(=O)C1c2nc(C3CCC(NC(=O)COC)CC3)nc(-c3ccc(F)cc3OC3CC3)c2NC1C` (stereo not given): in the data set with Rattus norvegicus [4], the “inhibition (INH)” value was 7 - 99%.

For the compound `Cc1ccc(=O)n(-c2ccccc2)c1` [PIRFENIDONE], in the data set with NIH3T3 [5], the pIC50 is 3.34. In addition, the half-life in data set [6] is 3 h. Further, in the data set with Rattus norvegicus [7], the Activity stood at 158.39 µmol.

For the compound `Nc1cncc(-c2cnc3[nH]nc(-c4nc5c(-c6cccc(F)c6)cncc5[nH]4)c3c2)c1`, the pIC50 in [8] was 6.76.

Take `CCOc1ccc(-n2c(C)cc(C)c(C#N)c2=O)cc1`: the Activity in the data set with Rattus norvegicus [7] was 119.55 µmol.

In the case of `Cc1cccc(-n2cc(COc3ccccc3)ccc2=O)c1`, the pIC50 in the data set with NIH3T3 [9] is 4.80.

On to `C[C@@H](C(=O)NCCN1CCCC1)c1ccc(OS(=O)(=O)C(F)(F)F)cc1`, for which the inhibition in [1] amounted to 0%; in [10], 65%; in data set [2] it was 52%.

`O=c1ccc2c(n1-c1ccc(Br)cc1)CCCC2O` (stereo not given) gave a pIC50 in the data set on NIH3T3 [3] of 3.52.

For the compound `CCOc1ccc(-n2c(N)c(C#N)c(-c3ccccc3)c(C#N)c2=O)cc1`, the Activity with Rattus norvegicus [7] is 48.55 µmol.

For `CNC(=O)c1cnccc1Nc1nc(-c2cc(Cl)ccc2F)nc2ncccc12`, the pIC50 in [11] is 7.15.

`CC(n1cnnc1-c1nc(NC(=O)c2cc(-n3cnc(C4CC4)c3)c(N3CCCCC3)cn2)cs1)C(F)(F)F` (stereo not given): the negative-log IC50 (pIC50) in [12] was 9.15.

Take `CN(C)c1cncc(-c2cnc3[nH]nc(-c4nc5c(-c6cccc(F)c6)cncc5[nH]4)c3c2)c1`: the pIC50 in data set [8] is 5.72 to 6.36.

Consider `C[C@@H](C(=O)NCCCN1CCCC1)c1ccc(OS(=O)(=O)C(F)(F)F)cc1`, for which the inhibition is 0% in data set [1], 67% in [10] and 51% in data set [2].

With `CNC(=O)C1c2nc(C3CCC(NC(C)=O)CC3)nc(-c3cc(C(F)(F)F)ccc3OC3CC3)c2NC1C` (stereo not given), the “inhibition (INH)” value in the data set with Rattus norvegicus [4] is 7 - 99%.

Turning to `Cc1cccc(-n2cc(CNc3ccccc3)ccc2=O)c1`, in the data set on A549 [13], the pIC50 is 3.89.

In data set [11], `NC(=O)c1cnccc1Nc1nc(-c2cc(Cl)ccc2F)nc2ncccc12` had a pIC50 of 7.70.

Take `O=c1ccc(COc2ccccc2)cn1-c1ccc(Cl)cc1`: the negative logarithm of the IC50 (pIC50) with NIH3T3 [9] was 4.85.

With `Cc1cc(COc2ccc(S(=O)(=O)N[C@@H]3CCC[C@@H]3C(=O)NO)cc2)c2ccccc2n1`, the pIC50 in data set [14] was 9.22.

Take `CC(C)Nc1cncc(-c2cnc3[nH]nc(-c4nc5c(-c6cncc(F)c6)cncc5[nH]4)c3c2)c1`: the pIC50 in data set [8] was 7.17.

With `O=C(O)c1cc2c(O)cccc2n(-c2ccc(F)cc2Cl)c1=O`, the pIC50 with NIH3T3 [3] was 4.05.

In the case of `CN(C)c1cncc(-c2cnc3[nH]nc(-c4nc5c(-c6cccs6)cncc5[nH]4)c3c2)c1`, the negative-log IC50 (pIC50) in [8] is 5.96.

As to `CCC(=O)NC1CCC(c2nc(-c3cc(C(F)(F)F)ccc3OC3CC3)c3c(n2)C(C(=O)NC)C(C)N3)CC1` (stereo not given), the “inhibition (INH)” value with Rattus norvegicus [4] is reported as 7 - 99%.

Turning to `COc1ccc2c(O[C@@H]3C[C@H](C(=O)N[C@@H](CC4CC4)C(=O)C(=O)NC4CC4)N(C[C@@H](NC(=O)NC(C)(C)C)C(C)(C)C)C3)nccc2c1`, the pIC50 against Cathepsin B is 7.57.

For `Cc1cccc(NCc2ccc(=O)n(Cc3ccccc3)c2)c1`, the pIC50 in the data set on A549 [15] is 3.89.

On to `CO[C@H]1O[C@H](CNc2ccccc2Cn2cc(C(F)(F)F)ccc2=O)[C@@H](O)[C@H](O)[C@H]1O`, for which, in the data set on NIH3T3 [16], the pIC50 is 3.77.

For `CNC(=O)C1c2nc(C3CCC(NC(=O)COC)CC3)nc(-c3cc(C(F)(F)F)ccc3OC3CC3)c2NC1C` (stereo not given), the “inhibition (INH)” value with Rattus norvegicus [4] is 7 - 99%.

As to `Cc1cc(CC(C)C)ccc1CC(=O)NS(C)(=O)=O`, the figures for the inhibition in data set [1] and in data set [2] were 0% and 67%, respectively.

In the case of `CNC(=O)C1c2nc(C3CCC(NC(=O)COC)CC3)nc(-c3cc(C)ccc3OC3CC3)c2NC1C` (stereo not given), in the data set on Rattus norvegicus [4], the “inhibition (INH)” value was 7 - 99%.

As to `O=c1ccc(CNc2ccccc2F)cn1Cc1ccccc1`, in the data set on NIH3T3 [5], the pIC50 was 5.52.

In the case of `COc1ccc(Cn2cc(COc3ccc(F)cc3)ccc2=O)cc1`, the figures for the pIC50 with NIH3T3 [5] and in the data set with A549 [15] were 4.26 and 4.70, respectively.
